# According to ChEMBL document CHEMBL1131152, “In vitro and in vivo activities of oligodeoxynucleotide-based thrombin inhibitors containing neutral formacetal linkages” (J Med Chem, 1998):
# Target: Prothrombin (Homo sapiens) (UniProt P00734)
# Assay: Relative prothrombin time was determined as the activity of the test ODN (oligodeoxynucleotide) relative to that of GS-522
row,Relative PT,SMILES
1,0.6,Cc1cn([C@H]2C[C@H](OP(=O)(O)OC[C@H]3O[C@@H](n4cnc5c(=O)nc(N)[nH]c54)C[C@@H]3OCOC[C@H]3O[C@@H](n4cnc5c(=O)[nH]c(=N)[nH]c54)C[C@@H]3OP(=O)(O)OC[C@H]3O[C@@H](n4cc(C)c(=O)[nH]c4=O)C[C@@H]3OP(=O)(O)OC[C@H]3O[C@@H](n4cnc5c(O)nc(=N)[nH]c54)C[C@@H]3OP(=O)(O)OC[C@H]3O[C@@H](n4cc(C)c(=O)[nH]c4=O)C[C@@H]3OP(=O)(O)OC[C@H]3O[C@@H](n4cnc5c(=O)nc(N)[nH]c54)C[C@@H]3OP(=O)(O)OC[C@H]3O[C@@H](n4cnc5c(=O)[nH]c(=N)[nH]c54)C[C@@H]3OP(=O)(O)OC[C@H]3O[C@@H](n4cc(C)c(=O)[nH]c4=O)C[C@@H]3OP(=O)(O)OC[C@H]3O[C@@H](n4cc(C)c(=O)[nH]c4=O)C[C@@H]3OP(=O)(O)OC[C@H]3O[C@@H](n4cnc5c(=O)[nH]c(=N)[nH]c54)C[C@@H]3OP(=O)(O)OC[C@H]3O[C@@H](n4cnc5c(=O)nc(N)[nH]c54)C[C@@H]3O)[C@@H](COP(=O)(O)O[C@H]3C[C@H](n4cc(C)c(=O)[nH]c4=O)O[C@@H]3COP(=O)(O)O[C@H]3C[C@H](n4cnc5c(=O)nc(N)[nH]c54)O[C@@H]3COCO[C@H]3C[C@H](n4cnc5c(=O)[nH]c(=N)[nH]c54)O[C@@H]3COP(=O)(O)O)O2)c(=O)[nH]c1=O
2,0.8,Cc1cn([C@H]2C[C@H](OCOC[C@H]3O[C@@H](n4cnc5c(=O)nc(N)[nH]c54)C[C@@H]3OP(=O)(O)OC[C@H]3O[C@@H](n4cc(C)c(=O)[nH]c4=O)C[C@@H]3OP(=O)(O)OC[C@H]3O[C@@H](n4cnc5c(=O)nc(N)[nH]c54)C[C@@H]3OP(=O)(O)OC[C@H]3O[C@@H](n4cnc5c(=O)[nH]c(=N)[nH]c54)C[C@@H]3OP(=O)(O)OC[C@H]3O[C@@H](n4cc(C)c(=O)[nH]c4=O)C[C@@H]3OP(=O)(O)OC[C@H]3O[C@@H](n4cc(C)c(=O)[nH]c4=O)C[C@@H]3OP(=O)(O)OC[C@H]3O[C@@H](n4cnc5c(=O)[nH]c(=N)[nH]c54)C[C@@H]3OP(=O)(O)OC[C@H]3O[C@@H](n4cnc5c(=O)nc(N)[nH]c54)C[C@@H]3O)[C@@H](COP(=O)(O)O[C@H]3C[C@H](n4cnc5c(=O)[nH]c(=N)[nH]c54)O[C@@H]3COP(=O)(O)O[C@H]3C[C@H](n4cnc5c(=O)nc(N)[nH]c54)O[C@@H]3COP(=O)(O)O[C@H]3C[C@H](n4cc(C)c(=O)[nH]c4=O)O[C@@H]3COP(=O)(O)O[C@H]3C[C@H](n4cc(C)c(=O)[nH]c4=O)O[C@@H]3COP(=O)(O)O[C@H]3C[C@H](n4cnc5c(=O)nc(N)[nH]c54)O[C@@H]3COP(=O)(O)O[C@H]3C[C@H](n4cnc5c(=O)nc(N)[nH]c54)O[C@@H]3COP(=O)(O)O)O2)c(=O)[nH]c1=O
3,0.6,Cc1cn([C@H]2C[C@H](OP(=O)(O)OC[C@H]3O[C@@H](n4cnc5c(=O)nc(N)[nH]c54)C[C@@H]3OCOC[C@H]3O[C@@H](n4cnc5c(=O)[nH]c(=N)[nH]c54)C[C@@H]3OP(=O)(O)OC[C@H]3O[C@@H](n4cc(C)c(=O)[nH]c4=O)C[C@@H]3OP(=O)(O)OC[C@H]3O[C@@H](n4cnc5c(=O)[nH]c(=N)[nH]c54)C[C@@H]3OP(=O)(O)OC[C@H]3O[C@@H](n4cc(C)c(=O)[nH]c4=O)C[C@@H]3OP(=O)(O)OC[C@H]3O[C@@H](n4cnc5c(=O)nc(N)[nH]c54)C[C@@H]3OP(=O)(O)OC[C@H]3O[C@@H](n4cnc5c(=O)[nH]c(=N)[nH]c54)C[C@@H]3OP(=O)(O)OC[C@H]3O[C@@H](n4cc(C)c(=O)[nH]c4=O)C[C@@H]3OP(=O)(O)OC[C@H]3O[C@@H](n4cc(C)c(=O)[nH]c4=O)C[C@@H]3OP(=O)(O)OC[C@H]3O[C@@H](n4cnc5c(=O)[nH]c(=N)[nH]c54)C[C@@H]3OCOC[C@H]3O[C@@H](n4cnc5c(=O)nc(N)[nH]c54)C[C@@H]3O)[C@@H](COP(=O)(O)O[C@H]3C[C@H](n4cc(C)c(=O)[nH]c4=O)O[C@@H]3COP(=O)(O)O[C@H]3C[C@H](n4cnc5c(=O)nc(N)[nH]c54)O[C@@H]3COP(=O)(O)O[C@H]3C[C@H](n4cnc5c(=O)[nH]c(=N)[nH]c54)O[C@@H]3COP(=O)(O)O)O2)c(=O)[nH]c1=O
4,0.3,Cc1cn([C@H]2C[C@H](OCOC[C@H]3O[C@@H](n4cnc5c(=O)nc(N)[nH]c54)C[C@@H]3OP(=O)(O)OC[C@H]3O[C@@H](n4cnc5c(=O)[nH]c(=N)[nH]c54)C[C@@H]3OP(=O)(O)OC[C@H]3O[C@@H](n4cc(C)c(=O)[nH]c4=O)C[C@@H]3OP(=O)(O)OC[C@H]3O[C@@H](n4cnc5c(=O)[nH]c(=N)[nH]c54)C[C@@H]3OP(=O)(O)OC[C@H]3O[C@@H](n4cc(C)c(=O)[nH]c4=O)C[C@@H]3OP(=O)(O)OC[C@H]3O[C@@H](n4cnc5c(=O)nc(N)[nH]c54)C[C@@H]3OP(=O)(O)OC[C@H]3O[C@@H](n4cnc5c(=O)[nH]c(=N)[nH]c54)C[C@@H]3OP(=O)(O)OC[C@H]3O[C@@H](n4cc(C)c(=O)[nH]c4=O)C[C@@H]3OP(=O)(O)OC[C@H]3O[C@@H](n4cc(C)c(=O)[nH]c4=O)C[C@@H]3OCOC[C@H]3O[C@@H](n4cnc5c(=O)[nH]c(=N)[nH]c54)C[C@@H]3OP(=O)(O)OC[C@H]3O[C@@H](n4cnc5c(=O)nc(N)[nH]c54)C[C@@H]3O)[C@@H](COP(=O)(O)O[C@H]3C[C@H](n4cc(C)c(=O)[nH]c4=O)O[C@@H]3COP(=O)(O)O[C@H]3C[C@H](n4cnc5c(=O)nc(N)[nH]c54)O[C@@H]3COP(=O)(O)O[C@H]3C[C@H](n4cnc5c(=O)[nH]c(=N)[nH]c54)O[C@@H]3COP(=O)(O)O)O2)c(=O)[nH]c1=O
